Experimental data as given in paper PMC3487892, “The Pentameric Channel of COMPcc in Complex with Different Fatty Acids” (PLoS ONE, 2012).
Positions count from the first letter of the chain named.

How the values were obtained:
[1] = test system: COMPcc; set-up: method as in PMID 9736606; details: ligand bound in the channel; ref [9]; cited from earlier work
[2] = test system: COMPcc; details: wild type COMPcc; ref [9], [27]; cited from earlier work
[3] = test system: Q54I; details: Q54I mutant; ref [9], [27]; cited from earlier work
[4] = target: T1, COMPcc (Rattus norvegicus, UniProt P35444); assay: Displacement of CPA from the CPA-COMPcc complex by fatty acids (fluorescence); assay type: binding; details: for Kd: calculated from [FA]1/2 of CPA displacement; for Kd / IC50: 1× PBS pH 7.4, 25°C, triplicate; for Interaction Free Energy: from Kd of CPA displacement; for IC50: read-out: [FA]1/2, fatty acid concentration that halves the CPA fluorescence, COMPcc ~0.1 µM, CPA 0.4 µM
T1 sequence (P35444 27-72): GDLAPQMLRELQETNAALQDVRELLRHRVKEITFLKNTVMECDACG
Method: Steady-state fluorescence spectra were measured on a Fluorolog-3 Horiba Jobin Yvon spectrofluorometer (Edison, NJ). The sample was held in a 10×10 mm quartz cuvette equipped with a continuous stirrer. The data were analyzed with Sigmaplot (Point Richmond, CA) software. The reaction was thermostatically controlled at 25°C by a Jeio-Tech refrigerating bath circulator (Des Plaines, IL). All fluorescence data were collected in 1× PBS buffer, pH 7.4. From the fluorescence enhancement profile of CPA, the fraction of ligand bound protein (f) can be calculated using: [drawing 1] (1) where F0 is the fluorescence of protein sample when no CPA has been added, F is the protein fluorescence at any given CPA concentration and F420 is the protein fluorescence in the presence of 3 µM of CPA. In the case of one ligand binding site, f follows a hyperbolic dependence upon ligand concentration given by: [drawing 2] (2) where B is a constant, Kd is the dissociation constant and [L]free is the concentration of free ligand (in this case CPA).
The probe CPA can also be used to characterize the binding of other fatty acids to COMPcc. The addition of fatty acids (FA) to the CPA-COMPcc complex will displace CPA leading to a decrease in fluorescence. […] In the case where there is no FA added the concentrations are [COMPcc] = [COMPcc]0 and [CPA]≈[CPA]0 = 0.4 µM. In this case the concentration of the CPA-COMPcc complex will be equal to: [drawing 5] (5) At [drawing 6] ,the concentration of the COMPcc-CPA complex is equal to one half the initial: [drawing 7] (6) Writing a mass balance for COMPcc we obtain: [drawing 8] (7) When [drawing 9] : [drawing 10] (8) The dissociation constant [drawing 11] can be calculated using the value of [FA]1/2 (the amount of fatty acid that reduces the CPA fluorescence to half its original value.

[5] = target: T2, COMPcc (Rattus norvegicus, UniProt P35444, G27M/H53Q/R54Q); assay: Fluorescence enhancement of cis-parinaric acid (CPA) on binding to COMPcc
T2 construct: The coiled-coil domain of rat COMPcc comprising residues 27–72 was prepared as described previously; made in house; host or cells: E. coli
T2 sequence (P35444 27-72 G27M/H53Q/R54Q): T1 sequence (P35444 27-72) with G1M, H27Q, R28Q
Method: The coiled-coil domain of rat COMPcc comprising residues 27–72 was prepared as described previously. Purified COMPcc was dialyzed against PBS pH 7.4 and concentrated to 10 mg/mL using an 10 kDa Amicon membrane (Millipore).
Steady-state fluorescence spectra were measured on a Fluorolog-3 Horiba Jobin Yvon spectrofluorometer (Edison, NJ). The sample was held in a 10×10 mm quartz cuvette equipped with a continuous stirrer. The data were analyzed with Sigmaplot (Point Richmond, CA) software. The reaction was thermostatically controlled at 25°C by a Jeio-Tech refrigerating bath circulator (Des Plaines, IL). All fluorescence data were collected in 1× PBS buffer, pH 7.4. From the fluorescence enhancement profile of CPA, the fraction of ligand bound protein (f) can be calculated using: [drawing 1] (1) where F0 is the fluorescence of protein sample when no CPA has been added, F is the protein fluorescence at any given CPA concentration and F420 is the protein fluorescence in the presence of 3 µM of CPA. In the case of one ligand binding site, f follows a hyperbolic dependence upon ligand concentration given by: [drawing 2] […] Therefore, the binding of CPA to COMPcc is consistent with hyperbolic one site binding and the experimentally determined binding constant was 0.7±0.1 µM.

SMILES | increase of midpoint transition temperature (Tm) of unfolding [1] | Kd [4] | Interaction Free Energy [4] | IC50 [4] | further results
c1ccccc1 [benzene] | 2 °C | – | – | – | –
CCCCCCCC/C=C/CCCCCCCC(=O)O [18:1 trans-9 elaidic acid] | 10 °C | – | – | – | –
CC1=C(/C=C/C(C)=C/C=C/C(C)=C/CO)C(C)(C)CCC1 [vitamin A] | – | – | – | – | Interaction Free Energy [2]: -8.4 kcal/mol; Kd [2]: 600 nM; Interaction Free Energy [3]: -8.3 kcal/mol; Kd [3]: 800 nM
C=C1CC[C@H](O)C/C1=C/C=C1\CCC[C@]2(C)[C@@H]([C@H](C)CCCC(C)C)CC[C@@H]12 [vitamin D3] | 8 °C | – | – | – | –
CCCCCCCC/C=C\CCCCCCCC(=O)O [C18:1 [Oleic acid], Oleic acid] | – | 900 ± 100 nM | -8.24 ± 0.06 kcal/mol | 390 ± 50 nM | –
C1CCCCC1 [cyclohexane] | 2 °C | – | – | – | –
CCCCCCCCCCCCCC(=O)O [C14:0 [Myristic acid], Myristic acid] | – | 800 ± 100 nM | -8.31 ± 0.07 kcal/mol | 320 ± 50 nM | –
CC\C=C/C=C/C=C/C=C\CCCCCCCC(=O)O [cis-Parinaric acid] | – | – | – | – | Interaction Free Energy ([5]; from Kd of direct CPA binding): -8.42 ± 0.08 kcal/mol; Kd ([5]; hyperbolic one-site binding, excitation 320 nm, emission 420 nm, 1× PBS pH 7.4, 25°C): 700 ± 100 nM
CCCCCCCCCCCCCCCCCCCC(=O)O [C20:0 [Arachidic acid], Arachidic acid] | – | 700 ± 100 nM | -8.42 ± 0.08 kcal/mol | 280 ± 40 nM | –
